Measured values from patent US20050169994A1 (priority 2003, published 2005).
Counter-ions that a name gives are not always drawn. Like-named read-outs stand apart in the source and are kept apart here.

Columns and labels:
[1] = Solubility in water at 25° C. over time, with pH of filtered solution
Source text: Aliquots were taken out at various time-point, filtered through 0.45 μm Acrodisc GHP filter.

[2] = pH 7.1
[3] = cited from earlier work
[4] = pH-solubility profile for carvedilol; conditions: aqueous medium
[5] = R and S isomers, systemic circulation; cited from earlier work

For `COc1ccccc1OCCNCC(O)COc1cccc2[nH]c3ccccc3c12.O=P(O)(O)O` (stereo not drawn) [Phosphate salt, Carvedilol dihydrogen phosphate], the “aqueous solubility compared with free base” value ([1]; in words) was “much better aqueous solubility than the free base”.

For `COc1ccccc1OCCNCC(O)COc1cccc2[nH]c3ccccc3c12` (stereo not drawn) [Carvedilol], the solubility [2] is listed as 20 to 30 µg/mL, the solubility ([3]; above a pH of 9.0) is listed as less than 1 µg/mL and the saturation solubility ([3]; pH=5, room temperature) is listed as “about 100 μg/mL”. For the same compound, the saturation solubility ([3]; pH=7, room temperature) was “about 23 μg/mL”, the solubility thermodynamic [4] was no more than 100 µg/mL and the alpha elimination phase [5] was “about 1.5 hours”.

In the case of `COc1ccccc1OCCNCC(O)COc1cccc2[nH]c3ccccc3c12` (stereo not drawn) [hydrochloride salt of carvedilol, carvedilol hydrochloride], the “solubility in acidic medium” value ([3]; salt generated in situ in acidic medium simulating gastric fluid) is listed as “less soluble”.

With `COc1ccccc1OCCNCC(O)COc1cccc2[nH]c3ccccc3c12` (stereo not drawn) [HBr salt, carvedilol hydrobromide] the “aqueous solubility compared with free base” value [1] was “much better aqueous solubility than the free base”.
